Structures can show the parent of a compound that is named as a salt.

Consider `COc1cc(-c2cnc3[nH]cc(C(=O)NCC(C)OC)c3n2)cc(OC)c1OC` (centres unmarked) (as salt: hydrochloride) [Example 24, 2-(3,4,5-Trimethoxy-phenyl)-5H-pyrrolo[2,3-b]pyrazine-7-carboxylic acid (2-methoxy-propyl)-amide], for which the melting point lay within 199 to 200 °C. The value for `COc1cc(-c2cnc3[nH]cc(C(=O)NCC(C)(C)CO)c3n2)cc(OC)c1OC` [Example 15, 2-(3,4,5-Trimethoxy-phenyl)-5H-pyrrolo[2,3-b]pyrazine-7-carboxylic acid (3-hydroxy-2,2-dimethyl-propyl)-amide] was 224 to 225 °C. For `COc1ccc(-c2cnc3[nH]cc(C(N)=O)c3n2)cc1OC` [Example 18, 2-(3,4-Dimethoxy-phenyl)-5H-pyrrolo[2,3-b]pyrazine-7-carboxylic acid amide], the melting point lay within 290 to 292.4 °C.

Regarding `COc1cc(-c2cnc3[nH]cc(C(=O)NCC(C)O)c3n2)cc(OC)c1OC` (centres unmarked) [Example 22, 2-(3,4,5-Trimethoxy-phenyl)-5H-pyrrolo[2,3-b]pyrazine-7-carboxylic acid (2-hydroxy-propyl)-amide], the melting point is 201.9 to 202.6 °C.

As to `COc1cc(-c2cnc3[nH]cc(C(=O)NC4CCCOC4)c3n2)cc(OC)c1OC` (centres unmarked) [Example 23, 2-(3,4,5-Trimethoxy-phenyl)-5H-pyrrolo[2,3-b]pyrazine-7-carboxylic acid (tetrahydro-pyran-3-yl)-amide], the melting point was in the range of 191 to 192 °C. On to `COc1ccc(-c2cnc3[nH]cc(C(=O)NC4CCN(C)C4)c3n2)cc1OC` (centres unmarked) [Example 25, 2-(3,4-Dimethoxy-phenyl)-5H-pyrrolo[2,3-b]pyrazine-7-carboxylic acid (1-methyl-pyrrolidin-3-yl)-amide], for which the melting point is 193 to 194 °C.

On to `COc1ccc(-c2cnc3[nH]cc(C(=O)NC4CCN(C(C)=O)C4)c3n2)cc1OC` (centres unmarked) [Example 26, 2-(3,4-Dimethoxy-phenyl)-5H-pyrrolo[2,3-b]pyrazine-7-carboxylic acid (1-acetyl-pyrrolidin-3-yl)-amide], for which the melting point fell in the range of 211 to 212 °C. The same measure for `CC(C)(C)C(=O)c1c[nH]c2ncc(-c3cccc(N4CCCC4)c3)nc12` [Example 33, 2,2-dimethyl-1-[2-(3-pyrrolidin-1-yl-phenyl)-5H-pyrrolo[2,3-b]pyrazin-7-yl]-propan-1-one]: 259 to 260 °C; for `CC1(C(=O)c2c[nH]c3ncc(-c4cccc(N5CCCC5)c4)nc23)CCCCC1` [Example 36, (1-Methyl-cyclohexyl)-[2-(3-pyrrolidin-1-yl-phenyl)-5H-pyrrolo[2,3-b]pyrazin-7-yl]-methanone]: 243 to 245.4 °C; for `COc1cc(-c2cnc3[nH]cc(C(=O)C(C)(CO)CO)c3n2)cc(OC)c1OC` [Example 58, 3-Hydroxy-2-hydroxymethyl-2-methyl-1-[2-(3,4,5-trimethoxy-phenyl)-5H-pyrrolo[2,3-b]pyrazin-7-yl]-propan-1-one]: 222 to 223 °C. Take `COc1cc(-c2cnc3[nH]cc(C(=O)CC(C)C)c3n2)cc(OC)c1OC` [Example 63, 3-methyl-1-[2-(3,4,5-trimethoxy-phenyl)-5H-pyrrolo[2,3-b]pyrazin-7-yl]-butan-1-one]: the melting point lay in the range of 210 to 211.4 °C.

With `COc1cc(-c2cnc3[nH]cc(C(=O)Cc4ccccc4)c3n2)cc(OC)c1OC` [Example 64, 2-phenyl-1-[2-(3,4,5-trimethoxy-phenyl]-5H-pyrrolo[2,3-b]pyrazin-7-yl]-ethanone], the melting point lay in the range of 226 to 227 °C. The value for `COc1cc(-c2cnc3[nH]cc(C(=O)C(C)(C)C)c3n2)cc(OC)c1OC` [Example 67, 2,2-Dimethyl-1-[2-(3,4,5-trimethoxy-phenyl)-5H-pyrrolo[2,3-b]pyrazin-7-yl]-propan-1-one] was 240 to 241 °C. The value for `COc1cc(-c2cnc3[nH]cc(C(=O)C(C)C)c3n2)cc(OC)c1OC` [Example 68, 2-Methyl-1-[2-(3,4,5-trimethoxy-phenyl)-5H-pyrrolo[2,3-b]pyrazin-7-yl]-propan-1-one] was 189 to 190 °C.

One may read the melting point as the temperature, or range, at which the solid turns liquid.

The values are drawn from US8008298B2, “Pyrrolopyrazine kinase inhibitors” (Roche Palo Alto, priority 2008, dated 2011).
